Laboratory results published in ChEMBL document CHEMBL1201862, “PubChem BioAssay data set” (2004).
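Five concentrations, 48 hours, 96-well plates. GI50 marks 50% less growth.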 Active and inactive are the calls of the source. No stated cut-off is given here; in the data, active = GI50 up to about 1.1 µM and inactive = higher.

Key:
Assay in all cases: inhibition of tumour cell growth, NCI panel, 48 h
786-0 = system: 786-0
A498 = system: A498
A549 = system: A549
ACHN = system: ACHN
BT-549 = system: BT-549
CAKI-1 = system: CAKI-1
CCRF-CEM = system: CCRF-CEM
COLO 205 = system: COLO 205
DU-145 = system: DU-145
EKVX = system: EKVX
HCT-116 = system: HCT-116
HCT-15 = system: HCT-15
HL-60 = system: HL-60
HOP-62 = system: HOP-62
HT-29 = system: HT-29
Hs-578T = system: Hs-578T
IGROV-1 = system: IGROV-1
K562 = system: K562
KM12 = system: KM12
M14 = system: M14
MCF7 = system: MCF7
MDA-MB-231 = system: MDA-MB-231
MDA-N = system: MDA-N
MOLT-4 = system: MOLT-4
NCI-H226 = system: NCI-H226
NCI-H23 = system: NCI-H23
NCI-H460 = system: NCI-H460
NCI/ADR-RES = system: NCI/ADR-RES
OVCAR-3 = system: OVCAR-3
OVCAR-5 = system: OVCAR-5
OVCAR-8 = system: OVCAR-8
PC-3 = system: PC-3
RPMI-8226 = system: RPMI-8226
RXF 393 = system: RXF 393
SF-268 = system: SF-268
SF-295 = system: SF-295
SF-539 = system: SF-539
SK-MEL-2 = system: SK-MEL-2
SK-MEL-5 = system: SK-MEL-5
SN12C = system: SN12C
SNB-19 = system: SNB-19
SNB-75 = system: SNB-75
T47D = system: T47D
TK-10 = system: TK-10
UACC-257 = system: UACC-257
UACC-62 = system: UACC-62
UO-31 = system: UO-31
HCC 2998 = system: HCC 2998
HOP-92 = system: HOP-92
LOX IMVI = system: LOX IMVI
MDA-MB-435 = system: MDA-MB-435
Malme-3M = system: Malme-3M
NCI-H522 = system: NCI-H522
OVCAR-4 = system: OVCAR-4
SK-OV-3 = system: SK-OV-3
SR = system: SR
SW-620 = system: SW-620
SK-MEL-28 = system: SK-MEL-28
U-251 = system: U-251

Measured: GI50

CC(=O)Nc1nc2c(=O)c3ccccc3sc2s1
inactive: 786-0 > 100 µM | A498 > 100 µM | A549 > 100 µM | ACHN > 100 µM | BT-549 > 100 µM | CAKI-1 > 100 µM | CCRF-CEM > 100 µM | COLO 205 > 100 µM | DU-145 > 100 µM | EKVX > 100 µM | HCT-116 > 100 µM | HL-60 > 100 µM | HOP-62 > 100 µM | HT-29 > 100 µM | Hs-578T > 100 µM | IGROV-1 > 100 µM | K562 > 100 µM | KM12 > 100 µM | M14 > 100 µM | MCF7 34.4 µM | MDA-MB-231 > 100 µM | MDA-N > 100 µM | MOLT-4 > 100 µM | NCI-H226 > 100 µM | NCI-H23 > 100 µM | NCI-H460 > 100 µM | NCI/ADR-RES > 100 µM | OVCAR-3 > 100 µM | OVCAR-5 > 100 µM | OVCAR-8 > 100 µM | PC-3 > 100 µM | RPMI-8226 > 100 µM | RXF 393 > 100 µM | SF-268 > 100 µM | SF-295 > 100 µM | SF-539 > 100 µM | SK-MEL-2 > 100 µM | SK-MEL-5 > 100 µM | SN12C > 100 µM | SNB-19 > 100 µM | SNB-75 > 100 µM | T47D > 100 µM | TK-10 87.3 µM | UACC-257 > 100 µM | UACC-62 > 100 µM | UO-31 > 100 µM
> 100 µM: HCT-15

Cc1ccc(/N=N/NCCCCN)cc1
inactive: 786-0 > 100 µM | A498 > 100 µM | A549 8.75 µM | ACHN 12.6 µM | BT-549 > 100 µM | CAKI-1 > 100 µM | CCRF-CEM 9.64 µM | COLO 205 > 100 µM | DU-145 > 100 µM | EKVX > 100 µM | HCC 2998 > 100 µM | HCT-116 > 100 µM | HL-60 3.79 µM | HOP-62 > 100 µM | HOP-92 > 100 µM | HT-29 > 100 µM | Hs-578T > 100 µM | IGROV-1 > 100 µM | K562 > 10 µM | KM12 81.7 µM | LOX IMVI 10.1 µM | M14 > 100 µM | MCF7 > 100 µM | MDA-MB-231 > 100 µM | MDA-MB-435 > 100 µM | MDA-N > 100 µM | MOLT-4 7.26 µM | Malme-3M > 100 µM | NCI-H226 > 100 µM | NCI-H23 > 100 µM | NCI-H522 > 100 µM | NCI/ADR-RES > 100 µM | OVCAR-4 > 100 µM | OVCAR-5 > 100 µM | OVCAR-8 > 100 µM | RPMI-8226 5.86 µM | RXF 393 > 100 µM | SF-268 > 100 µM | SF-295 19.3 µM | SF-539 > 100 µM | SK-MEL-2 > 100 µM | SK-MEL-5 23.8 µM | SK-OV-3 > 100 µM | SN12C > 100 µM | SNB-19 49.2 µM | SNB-75 > 100 µM | SR > 100 µM | SW-620 > 100 µM | T47D > 100 µM | TK-10 > 100 µM | UACC-257 > 100 µM | UACC-62 > 100 µM | UO-31 12.2 µM
> 100 µM: HCT-15

O=C1N/C(=N/N=C/C(O)C(O)C(O)CO)N/C1=C\c1c[nH]c2ccccc12 (stereo unspecified)
> 100 µM: HCT-15
inactive: 786-0 > 100 µM | A549 > 100 µM | ACHN > 100 µM | BT-549 > 100 µM | CAKI-1 > 100 µM | CCRF-CEM 41.7 µM | COLO 205 > 100 µM | DU-145 > 100 µM | EKVX > 100 µM | HCC 2998 > 100 µM | HCT-116 > 100 µM | HL-60 > 100 µM | HOP-62 > 100 µM | HOP-92 > 100 µM | HT-29 > 100 µM | Hs-578T > 100 µM | IGROV-1 > 100 µM | K562 > 100 µM | KM12 > 100 µM | LOX IMVI > 100 µM | M14 > 100 µM | MCF7 > 100 µM | MDA-MB-231 > 100 µM | MDA-MB-435 > 100 µM | MDA-N > 100 µM | MOLT-4 > 100 µM | Malme-3M > 100 µM | NCI-H226 > 100 µM | NCI-H23 > 100 µM | NCI-H460 > 100 µM | NCI-H522 > 100 µM | NCI/ADR-RES > 100 µM | OVCAR-3 > 100 µM | OVCAR-4 > 100 µM | OVCAR-5 > 100 µM | OVCAR-8 > 100 µM | RPMI-8226 > 100 µM | RXF 393 > 100 µM | SF-268 > 100 µM | SF-295 > 100 µM | SF-539 > 100 µM | SK-MEL-28 > 100 µM | SK-MEL-5 > 100 µM | SK-OV-3 > 100 µM | SN12C > 100 µM | SNB-19 1.93 µM | SNB-75 > 100 µM | SW-620 > 100 µM | T47D > 100 µM | TK-10 > 100 µM | U-251 > 100 µM | UACC-257 > 100 µM | UACC-62 > 100 µM

CN(C)CCNC(=O)c1cccc2c1Oc1c(cccc1[N+](=O)[O-])O2
0.544 µM: HCT-15
active: 786-0 0.564 µM | A549 0.458 µM | ACHN 0.335 µM | CAKI-1 0.297 µM | CCRF-CEM 0.371 µM | DU-145 0.57 µM | HCC 2998 1.04 µM | HCT-116 0.817 µM | HL-60 0.306 µM | HOP-62 0.472 µM | LOX IMVI 0.908 µM | MCF7 0.957 µM | MOLT-4 0.298 µM | NCI-H226 0.288 µM | NCI-H460 0.413 µM | NCI-H522 0.975 µM | RPMI-8226 0.583 µM | SF-295 0.548 µM | SK-MEL-2 0.29 µM | SN12C 0.74 µM | SR 0.462 µM | SW-620 1.06 µM | T47D 0.323 µM | U-251 0.787 µM | UACC-62 0.419 µM | UO-31 0.885 µM
inactive: A498 1.37 µM | BT-549 1.9 µM | COLO 205 1.87 µM | EKVX 3.22 µM | HT-29 1.41 µM | Hs-578T 1.94 µM | IGROV-1 1.56 µM | K562 1.45 µM | KM12 1.26 µM | M14 2.64 µM | MDA-MB-435 3.44 µM | MDA-N 2.78 µM | Malme-3M 1.33 µM | NCI-H23 1.44 µM | OVCAR-3 2.69 µM | OVCAR-4 5.04 µM | OVCAR-5 2.18 µM | OVCAR-8 1.71 µM | PC-3 1.95 µM | RXF 393 2.08 µM | SF-268 2.97 µM | SF-539 1.39 µM | SK-MEL-28 2.02 µM | SK-MEL-5 1.28 µM | SNB-75 1.24 µM | TK-10 1.69 µM | UACC-257 2 µM

CN(C)C(=N)/N=C(\N)Nc1cccc(Cl)c1
inactive: 786-0 > 100 µM | A549 > 100 µM | ACHN 55.5 µM | BT-549 19.5 µM | CAKI-1 48.2 µM | COLO 205 20 µM | EKVX > 100 µM | HCC 2998 > 100 µM | HCT-116 85.7 µM | HOP-62 > 100 µM | HT-29 > 100 µM | Hs-578T > 100 µM | IGROV-1 24.5 µM | K562 > 100 µM | KM12 > 100 µM | LOX IMVI 35.9 µM | M14 58.2 µM | MCF7 90.8 µM | MDA-MB-231 46.7 µM | MDA-MB-435 > 100 µM | MDA-N 83.9 µM | MOLT-4 > 100 µM | Malme-3M 45.3 µM | NCI-H226 22.3 µM | NCI-H23 > 100 µM | NCI-H460 91.6 µM | NCI/ADR-RES > 100 µM | OVCAR-3 > 100 µM | OVCAR-4 > 100 µM | OVCAR-5 > 100 µM | OVCAR-8 61.4 µM | PC-3 41.8 µM | RPMI-8226 > 100 µM | SF-268 35.4 µM | SF-295 84.1 µM | SF-539 47.8 µM | SK-MEL-28 > 100 µM | SK-MEL-2 > 100 µM | SK-MEL-5 28.1 µM | SK-OV-3 > 100 µM | SN12C 98.6 µM | SNB-19 > 100 µM | SNB-75 91.2 µM | SR 53.2 µM | SW-620 > 100 µM | T47D 24.8 µM | TK-10 > 100 µM | U-251 > 100 µM | UACC-257 90.8 µM | UACC-62 89.1 µM | UO-31 78 µM
> 100 µM: HCT-15
